Results from patent US11542530B2, “Method for increasing efficiency of homologous recombination-based gene editing in plant” (INDUSTRY-ACADEMIC COOPERATION FOUNDATION GYEONGSANG …, priority 2018, dated 2023).
Read-outs that look alike come from different tables or passages of the source.

Assays:
recombinase RAD51 = conditions: mouse, reported; cited from earlier work
RAD51 = assay: HDR efficiency after treatment with RS-1; assay type: cell-based; conditions: RS-1 as activator of RAD51
Text: As a method which can be used either simultaneously or separately from the approaching method of above VI, there is a method of activating HDR pathway-regulating proteins by using chemical factors.

mammalian ligase IV [1] = conditions: human cell line, reported; cited from earlier work
mammalian ligase IV [2] = conditions: mouse, reported; cited from earlier work
[3] = test system: ligase IV of the NHEJ pathway; assay: HDR efficiency after treatment with NHEJ inhibitor SCR7 pyrazine, tomato cotyledons with pTC217 / pTC147; assay type: cell-based; conditions: for Editing efficiency: total purple spots (pTC217)/total purple spots (pTC147)×100 / Editing efficiency / Purple spot/cotyledon (Avg.) / Purple spots (Total): 21 dpi
Text: In the present invention, a method of increasing the HDR efficiency according to blocking of the NHEJ pathway by using Scr7 pyrazine chemical compound, which is an inhibitor of ligase IV of the NHEJ pathway in competitive relationship with the HDR pathway, was employed. As a result, when Scr7 pyrazine is used, the HDR efficiency had increased by 4 times compared to the comparative control group.
In order to measure the HDR frequency of Cas9, 21 days after the Agrobacterium infection, purple spots were counted from the cotyledon which has been infected with pTC217 (BeYDV with Cas9/gRNA1b) virus replicon and also from the cotyledon which has been transformed with pTC147 (35S:ANT1 T-DNA) control vector. By dividing the total number of purple spots that has been counted from callus generated with pTC217 by the total number of purple spots that has been counted from callus generated with pTC147, the HDR frequency rate was estimated.
DNA repair is mostly achieved by NHEJ pathway, and HDR-based repair occurs very limitedly. According to previous studies made on mammals, it was reported that HDR efficiency can be increased by blocking the NHEJ pathway. It is reported that SCR7 pyrazine, which is an inhibitor of mammalian ligase IV, can increase HDR as much as about 19 times in mouse, or 5 times in human cell line. […] However, no report has been made regarding the influence of SCR7 pyrazine on plant HDR. Accordingly, the effect of a treatment with different cultivation period (0, 1, 2 or 3 days) or different SCR7 pyrazine concentration (0, 1, 10 μM) was examined by the inventors of the present invention by using Cas9 structure pTC217 (BeYDV having Cas9/gRNA1b).
[Editing efficiency: total purple spots (pTC217)/total purple spots (pTC147)×100]

ligase IV = conditions: reported, background art; cited from earlier work
[4] = Table 13 (Change 1), pTC147 (T-DNA), SCR7 1 μM, 1 day, cv. Hong-Kwang, DD→16L/8D, 28° C.
[5] = Table 13 (Change 1), pTC147 (T-DNA), SCR7 1 μM, 2 days, cv. Hong-Kwang, DD→16L/8D, 28° C.
[6] = Table 13 (Change 1), pTC147 (T-DNA), SCR7 1 μM, 3 days, cv. Hong-Kwang, DD→16L/8D, 28° C.
[7] = Table 13 (Change 1), pTC147 (T-DNA), SCR7 10 μM, 1 day, cv. Hong-Kwang, DD→16L/8D, 28° C.
[8] = Table 13 (Change 1), pTC147 (T-DNA), SCR7 10 μM, 2 days, cv. Hong-Kwang, DD→16L/8D, 28° C.
[9] = Table 13 (Change 1), pTC147 (T-DNA), SCR7 10 μM, 3 days, cv. Hong-Kwang, DD→16L/8D, 28° C.
[10] = Table 13 (Change 1), pTC217, SCR7 1 μM, 1 day, cv. Hong-Kwang, DD→16L/8D, 28° C.
[11] = Table 13 (Change 1), pTC217, SCR7 1 μM, 2 days, cv. Hong-Kwang, DD→16L/8D, 28° C.
[12] = Table 13 (Change 1), pTC217, SCR7 1 μM, 3 days, cv. Hong-Kwang, DD→16L/8D, 28° C.
[13] = Table 13 (Change 1), pTC217, SCR7 10 μM, 1 day, cv. Hong-Kwang, DD→16L/8D, 28° C.
[14] = Table 13 (Change 1), pTC217, SCR7 10 μM, 2 days, cv. Hong-Kwang, DD→16L/8D, 28° C.
[15] = Table 13 (Change 1), pTC217, SCR7 10 μM, 3 days, cv. Hong-Kwang, DD→16L/8D, 28° C.
[16] = Table 14 (Change 2), pTC147 (T-DNA), SCR7 1 μM, 1 day, cv. Hong-Kwang, DD→16L/8D, 28° C.
[17] = Table 14 (Change 2), pTC147 (T-DNA), SCR7 1 μM, 2 days, cv. Hong-Kwang, DD→16L/8D, 28° C.
[18] = Table 14 (Change 2), pTC147 (T-DNA), SCR7 1 μM, 3 days, cv. Hong-Kwang, DD→16L/8D, 28° C.
[19] = Table 14 (Change 2), pTC147 (T-DNA), SCR7 10 μM, 1 day, cv. Hong-Kwang, DD→16L/8D, 28° C.
[20] = Table 14 (Change 2), pTC147 (T-DNA), SCR7 10 μM, 2 days, cv. Hong-Kwang, DD→16L/8D, 28° C.
[21] = Table 14 (Change 2), pTC147 (T-DNA), SCR7 10 μM, 3 days, cv. Hong-Kwang, DD→16L/8D, 28° C.
[22] = Table 14 (Change 2), pTC217, SCR7 1 μM, 1 day, cv. Hong-Kwang, DD→16L/8D, 28° C.
[23] = Table 14 (Change 2), pTC217, SCR7 1 μM, 2 days, cv. Hong-Kwang, DD→16L/8D, 28° C.
[24] = Table 14 (Change 2), pTC217, SCR7 1 μM, 3 days, cv. Hong-Kwang, DD→16L/8D, 28° C.
[25] = Table 14 (Change 2), pTC217, SCR7 10 μM, 1 day, cv. Hong-Kwang, DD→16L/8D, 28° C.
[26] = Table 14 (Change 2), pTC217, SCR7 10 μM, 2 days, cv. Hong-Kwang, DD→16L/8D, 28° C.
[27] = Table 14 (Change 2), pTC217, SCR7 10 μM, 3 days, cv. Hong-Kwang, DD→16L/8D, 28° C.
[28] = pTC147 (T-DNA), SCR7 1 μM, cv. Tom-Heart, 16L/8D, 25° C.
[29] = pTC147 (T-DNA), SCR7 10 μM, cv. Tom-Heart, 16L/8D, 25° C.
[30] = pTC217, SCR7 1 μM, cv. Tom-Heart, 16L/8D, 25° C.
[31] = pTC217, SCR7 10 μM, cv. Tom-Heart, 16L/8D, 25° C.

O=C(Nc1ccc(Br)cc1)c1ccc(Br)c(S(=O)(=O)NCc2ccccc2)c1 [RS-1, RAD51-stimulatory compound 1]
effect on HDR efficiency (recombinase RAD51): can increase the HDR efficiency in mouse
increase of HDR efficiency (RAD51): approximately 3 times

O=c1[nH]c(=S)[nH]c2nc(-c3ccccc3)c(-c3ccccc3)nc12 [SCR7, 2,3-dihydro-6,7-diphenyl-2-thioxo-4 (1H)-pteridinone]
increase of HDR (mammalian ligase IV [1]): ~5 times
increase of HDR (mammalian ligase IV [2]): about 19 times
Editing efficiency: total purple spots (pTC217)/total purple spots (pTC147)×100 ([3]; SCR7 1 μM, cv. Tom-Heart, 16L/8D, 25° C.): 4.5
Editing efficiency: total purple spots (pTC217)/total purple spots (pTC147)×100 ([3]; SCR7 10 μM, cv. Tom-Heart, 16L/8D, 25° C.): 11.9
Editing efficiency ([3]; Table 13 (Change 1), SCR7 1 μM, 1 day, cv. Hong-Kwang, DD→16L/8D, 28° C.): 1.89
Editing efficiency ([3]; Table 13 (Change 1), SCR7 1 μM, 2 days, cv. Hong-Kwang, DD→16L/8D, 28° C.): 3.39
Editing efficiency ([3]; Table 13 (Change 1), SCR7 1 μM, 3 days, cv. Hong-Kwang, DD→16L/8D, 28° C.): 7.74
Editing efficiency ([3]; Table 13 (Change 1), SCR7 10 μM, 1 day, cv. Hong-Kwang, DD→16L/8D, 28° C.): 3.41
Editing efficiency ([3]; Table 13 (Change 1), SCR7 10 μM, 2 days, cv. Hong-Kwang, DD→16L/8D, 28° C.): 9.27
Editing efficiency ([3]; Table 13 (Change 1), SCR7 10 μM, 3 days, cv. Hong-Kwang, DD→16L/8D, 28° C.): 22.93
Purple spot/cotyledon (Avg.) [3, 4]: 28.7
Purple spots (Total) [3, 4]: 1005
Purple spot/cotyledon (Avg.) [3, 5]: 26.9
Purple spots (Total) [3, 5]: 942
Purple spot/cotyledon (Avg.) [3, 6]: 23.2
Purple spots (Total) [3, 6]: 813
Purple spot/cotyledon (Avg.) [3, 7]: 20.1
Purple spots (Total) [3, 7]: 703
Purple spot/cotyledon (Avg.) [3, 8]: 18.8
Purple spots (Total) [3, 8]: 658
Purple spot/cotyledon (Avg.) [3, 9]: 14.2
Purple spots (Total) [3, 9]: 497
Purple spot/cotyledon (Avg.) [3, 10]: 0.55
Purple spots (Total) [3, 10]: 19
Purple spot/cotyledon (Avg.) [3, 11]: 0.93
Purple spots (Total) [3, 11]: 32
Purple spot/cotyledon (Avg.) [3, 12]: 1.8
Purple spots (Total) [3, 12]: 63
Purple spot/cotyledon (Avg.) [3, 13]: 0.68
Purple spots (Total) [3, 13]: 24
Purple spot/cotyledon (Avg.) [3, 14]: 1.75
Purple spots (Total) [3, 14]: 61
Purple spot/cotyledon (Avg.) [3, 15]: 3.26
Purple spots (Total) [3, 15]: 114
Editing efficiency ([3]; Table 14 (Change 2), SCR7 1 μM, 1 day, cv. Hong-Kwang, DD→16L/8D, 28° C.): 7.45
Editing efficiency ([3]; Table 14 (Change 2), SCR7 1 μM, 2 days, cv. Hong-Kwang, DD→16L/8D, 28° C.): 7.17
Editing efficiency ([3]; Table 14 (Change 2), SCR7 1 μM, 3 days, cv. Hong-Kwang, DD→16L/8D, 28° C.): 7.54
Editing efficiency ([3]; Table 14 (Change 2), SCR7 10 μM, 1 day, cv. Hong-Kwang, DD→16L/8D, 28° C.): 11.34
Editing efficiency ([3]; Table 14 (Change 2), SCR7 10 μM, 2 days, cv. Hong-Kwang, DD→16L/8D, 28° C.): 13.52
Editing efficiency ([3]; Table 14 (Change 2), SCR7 10 μM, 3 days, cv. Hong-Kwang, DD→16L/8D, 28° C.): 15.15
Purple spot/cotyledon (Avg.) [3, 16]: 26.0
Purple spots (Total) [3, 16]: 912
Purple spot/cotyledon (Avg.) [3, 17]: 17.9
Purple spots (Total) [3, 17]: 627
Purple spot/cotyledon (Avg.) [3, 18]: 18.9
Purple spots (Total) [3, 18]: 663
Purple spot/cotyledon (Avg.) [3, 19]: 22.9
Purple spots (Total) [3, 19]: 802
Purple spot/cotyledon (Avg.) [3, 20]: 21.5
Purple spots (Total) [3, 20]: 754
Purple spot/cotyledon (Avg.) [3, 21]: 18.8
Purple spots (Total) [3, 21]: 660
Purple spot/cotyledon (Avg.) [3, 22]: 1.96
Purple spots (Total) [3, 22]: 68
Purple spot/cotyledon (Avg.) [3, 23]: 1.29
Purple spots (Total) [3, 23]: 45
Purple spot/cotyledon (Avg.) [3, 24]: 1.44
Purple spots (Total) [3, 24]: 50
Purple spot/cotyledon (Avg.) [3, 25]: 2.60
Purple spots (Total) [3, 25]: 91
Purple spot/cotyledon (Avg.) [3, 26]: 2.91
Purple spots (Total) [3, 26]: 102
Purple spot/cotyledon (Avg.) [3, 27]: 2.85
Purple spots (Total) [3, 27]: 100
increase of HDR efficiency ([3]; compared to the comparative control group): 4 times
HDR frequency, dependence on treatment ([3]; cultivation period 0, 1, 2 or 3 days, 0, 1, 10 μM, pTC217): HDR frequency increases in accordance with an increase in the treatment time (period) and concentration
Purple spot/cotyledon (Avg.) [3, 28]: 22.2
Purple spots (Total) [3, 28]: 1154
Purple spot/cotyledon (Avg.) [3, 29]: 21.8
Purple spots (Total) [3, 29]: 1137
Purple spot/cotyledon (Avg.) [3, 30]: 1
Purple spots (Total) [3, 30]: 52
Purple spot/cotyledon (Avg.) [3, 31]: 2.61
Purple spots (Total) [3, 31]: 136
increase of HDR (ligase IV): 2 to 19 times
